For test [1], the target named is T1, Ubiquitin thioesterase OTUB1 (Homo sapiens, UniProt Q96FW1). The test can be described thus: Inhibition of N-terminal His-6 tagged OTUB1 (40 to 271 residues) (unknown origin) expressed in Escherichia coli BL21 (DE3) cells at 100 nM using Ub-Rho measured after 0.5 to 3 hrs by fluorescence based Plate reader method relative to control. To be noted: time 0.5-3 hrs, values are per cent of control.

Test [2] addresses T2, Ubiquitin carboxyl-terminal hydrolase 8 (Homo sapiens) (UniProt P40818).
T2 sequence (whole entry): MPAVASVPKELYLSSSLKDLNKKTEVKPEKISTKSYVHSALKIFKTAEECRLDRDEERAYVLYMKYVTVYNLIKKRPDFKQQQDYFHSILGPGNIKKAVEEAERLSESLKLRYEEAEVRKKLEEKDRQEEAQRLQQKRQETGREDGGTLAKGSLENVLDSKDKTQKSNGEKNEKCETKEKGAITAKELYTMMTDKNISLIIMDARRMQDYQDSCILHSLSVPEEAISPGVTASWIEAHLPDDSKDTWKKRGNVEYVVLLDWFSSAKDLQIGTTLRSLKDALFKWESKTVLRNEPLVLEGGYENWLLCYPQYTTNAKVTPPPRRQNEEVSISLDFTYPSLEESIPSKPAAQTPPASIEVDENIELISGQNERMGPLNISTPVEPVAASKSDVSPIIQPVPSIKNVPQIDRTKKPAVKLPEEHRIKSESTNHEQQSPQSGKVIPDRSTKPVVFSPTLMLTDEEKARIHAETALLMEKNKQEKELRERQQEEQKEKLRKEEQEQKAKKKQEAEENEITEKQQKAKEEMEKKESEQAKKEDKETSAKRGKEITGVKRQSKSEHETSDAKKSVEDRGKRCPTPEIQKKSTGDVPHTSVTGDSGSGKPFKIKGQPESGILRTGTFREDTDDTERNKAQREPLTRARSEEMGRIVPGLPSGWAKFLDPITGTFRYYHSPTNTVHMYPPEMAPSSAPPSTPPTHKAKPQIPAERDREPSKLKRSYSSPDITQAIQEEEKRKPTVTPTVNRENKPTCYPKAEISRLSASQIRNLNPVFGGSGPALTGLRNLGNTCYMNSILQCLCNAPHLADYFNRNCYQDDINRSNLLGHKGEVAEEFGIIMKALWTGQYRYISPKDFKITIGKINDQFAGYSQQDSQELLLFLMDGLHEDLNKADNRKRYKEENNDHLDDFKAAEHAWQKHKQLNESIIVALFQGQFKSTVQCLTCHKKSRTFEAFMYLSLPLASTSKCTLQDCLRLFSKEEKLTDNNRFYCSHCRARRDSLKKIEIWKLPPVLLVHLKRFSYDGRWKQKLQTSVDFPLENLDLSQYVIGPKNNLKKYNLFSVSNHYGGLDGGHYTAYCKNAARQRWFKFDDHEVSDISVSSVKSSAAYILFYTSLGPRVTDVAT
The test can be described thus: Inhibition of N-terminal His-6 tagged USP8 (734 to 1110 residues) (unknown origin) expressed in Escherichia coli BL21 (DE3) cells at 10 nM measured after 3 hrs by fluorescence based Plate reader method relative to control. To be noted: values are per cent of control.

Test [3] addresses T2, Ubiquitin carboxyl-terminal hydrolase 8 (Homo sapiens). The test can be described thus: Inhibition of N-terminal His-6 tagged USP8 (734 to 1110 residues) (unknown origin) expressed in Escherichia coli BL21 (DE3) cells at 100 nM measured after 3 hrs by fluorescence based Plate reader method relative to control. To be noted: values are per cent of control.
The target of test [4] is T1, Ubiquitin thioesterase OTUB1. The test can be described thus: Inhibition of N-terminal His-6 tagged OTUB1 (40 to 271 residues) (unknown origin) expressed in Escherichia coli BL21 (DE3) cells at 10 nM using Ub-Rho measured after 0.5 to 3 hrs by fluorescence based Plate reader method relative to control. To be noted: time 0.5-3 hrs, values are per cent of control.

A word on the residual activity: it is the share of the control activity or signal that is left under treatment. Higher therefore signals a small loss of activity.

T1 sequence (Q96FW1 whole entry, the tested form may be a part): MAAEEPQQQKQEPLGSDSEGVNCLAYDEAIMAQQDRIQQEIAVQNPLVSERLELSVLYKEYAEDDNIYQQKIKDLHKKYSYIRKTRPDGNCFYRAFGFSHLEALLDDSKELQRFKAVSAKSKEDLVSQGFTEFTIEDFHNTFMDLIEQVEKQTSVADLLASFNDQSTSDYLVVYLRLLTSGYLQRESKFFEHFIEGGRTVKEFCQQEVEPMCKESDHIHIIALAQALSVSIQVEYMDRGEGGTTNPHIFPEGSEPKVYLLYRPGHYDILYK

`COc1cc(-c2nc3c(o2)C(=O)c2ccccc2C3=O)ccc1C(F)(F)F`: the residual activity came to 46.4% in test [1], 58.5% in test [2], 42.7% in test [3] and 71.4% in test [4].
In the case of `CN1CCN(CCOc2cc(Cl)cc(-c3nc4c(o3)C(=O)c3ccccc3C4=O)c2)CC1`, the residual activity in test [1] turned out to be 36.3%; in test [2] it was 58.8%; in test [3], 27.9%; in test [4], 77.3%.
The like results for `CN1CC[C@@H](Oc2cccc(-c3nc4c(o3)C(=O)c3ccccc3C4=O)c2)C1` were, in that order, 34%, 68.3%, 30% and 70.7%.
The corresponding values for `COc1cc(F)cc(-c2nc3c([nH]2)C(=O)c2ccccc2C3=O)c1` are 77.9%, 91.4%, 85.2% and 84.8%.
The like results for `Cc1cccc(-c2nc3c(o2)C(=O)c2ccccc2C3=O)c1` were, in that order, 49.2%, 63.6%, 40.9% and 63.1%.
As for `COc1cc(OC)cc(-c2nc3c(o2)C(=O)c2ccccc2C3=O)c1`, the residual activity in test [1] came to 48.1%; in test [2] it was 72.2%; in test [3], 52.2%; in test [4], 83.6%.
The corresponding values for `O=C1c2ccccc2C(=O)c2oc(-c3ccc(F)cc3F)nc21` are 19.4%, 34.7%, 19.3% and 44.5%.
The like results for `COc1ccc(-c2nc3c(o2)C(=O)c2ccccc2C3=O)c(C(F)(F)F)c1` were, in that order, 41.7%, 80.5%, 18.6% and 84.9%.
For `COc1ccc2c(c1)C(=O)c1nc(-c3cccc(OCCN(C)C)c3)[nH]c1C2=O`, the residual activity in test [1] turned out to be 77.2%; in test [2] it was 95.3%; in test [3], 99.6%; in test [4], 78.4%.
The corresponding values for `Cc1ccc(F)c(-c2nc3c(o2)C(=O)c2ccccc2C3=O)c1F` are 22.7%, 62.1%, 30.5% and 53.7%.
The like results for `O=C1c2ccccc2C(=O)c2oc(-c3cccc([N+](=O)[O-])c3)nc21` were, in that order, 18.9%, 41.9%, 29.4% and 47.8%.
Regarding `COc1cccc(-c2nc3c(o2)C(=O)c2ccccc2C3=O)c1`, the residual activity amounted to 30.9% in test [1], 52.7% in test [2], 32.9% in test [3] and 61.7% in test [4].
The corresponding values for `O=C1c2ccccc2C(=O)c2oc(-c3ccc([N+](=O)[O-])cc3)nc21` are 16.3%, 20.2%, 9.3% and 36.1%.
The corresponding values for `CN1CC[C@@H](Oc2ccc(-c3nc4c(o3)C(=O)c3ccccc3C4=O)c(C(F)(F)F)c2)C1` are 42.4%, 63.2%, 42.5% and 74.7%.
The like results for `Cc1ccc(-c2nc3c(o2)C(=O)c2ccccc2C3=O)cc1` were, in that order, 58.7%, 58.6%, 44.6% and 66.9%.
On to `CN(C)CCOc1cccc(-c2nc3c([nH]2)C(=O)c2ccccc2C3=O)c1`, for which the residual activity came to 80.4% in test [1], 88.7% in test [2], 86.4% in test [3] and 86.5% in test [4].
With `COc1cc(O[C@@H]2CCN(C)C2)cc(-c2nc3c(o2)C(=O)c2ccccc2C3=O)c1`, the residual activity in test [1] was determined as 44.2%; in test [2], 71.2%; in test [3] it was 46.2%; in test [4], 77.1%.
The like results for `COc1ccc(Cl)c(-c2nc3c(o2)C(=O)c2ccccc2C3=O)c1` were, in that order, 25.8%, 47.1%, 24% and 63.2%.
`O=C1c2ccccc2C(=O)c2oc(-c3ccc(Cl)cc3)nc21`: the residual activity was determined as 34.2% in test [1], 55.9% in test [2], 22.5% in test [3] and 61.3% in test [4].
The corresponding values for `O=C1c2ccccc2C(=O)c2oc(-c3ccc(Cl)cc3Cl)nc21` are 42.2%, 58.4%, 16% and 62.4%.
In the case of `COc1ccccc1-c1nc2c(o1)C(=O)c1ccccc1C2=O`, the residual activity in test [1] was 28.3%; in test [2], 43.9%; in test [3] it was 21.4%; in test [4], 59.2%.
The corresponding values for `CN1CC[C@H](Oc2cccc(-c3nc4c(o3)C(=O)c3ccccc3C4=O)c2)C1` are 38.7%, 60.2%, 29.8% and 75.6%.
On to `O=C1c2ccccc2C(=O)c2oc(-c3cccc(F)c3F)nc21`, for which the residual activity in test [1] came to 19.8%; in test [2] it was 40.1%; in test [3] it was 22.7%; in test [4], 50.2%.
The corresponding values for `CN(C)CCOc1cccc(-c2nc3c(o2)C(=O)c2ccccc2C3=O)c1` are 28.7%, 60.4%, 31.7% and 66.7%.
For `COc1cc(Cl)cc(-c2nc3c(o2)C(=O)c2ccccc2C3=O)c1`, the residual activity in test [1] was determined as 40.7%; in test [2] it was 49%; in test [3], 24%; in test [4], 74.4%.
The like results for `COc1cc(-c2nc3c(o2)C(=O)c2ccccc2C3=O)ccc1Cl` were, in that order, 40.4%, 53.6%, 30% and 70.2%.
The like results for `O=C1c2ccccc2C(=O)c2oc(-c3ccccc3Cl)nc21` were, in that order, 25.1%, 43.1%, 20.8% and 60%.
The corresponding values for `O=C1c2ccccc2C(=O)c2oc(-c3cccc(Cl)c3)nc21` are 34.7%, 66.3%, 49.3% and 60.4%.
On to `O=C1c2ccccc2C(=O)c2oc(-c3ccc(C(F)(F)F)cc3)nc21`, for which the residual activity in test [1] stood at 29%; in test [2], 37.8%; in test [3], 18.2%; in test [4], 60.3%.
The corresponding values for `CN1CCN(CCOc2cccc(-c3nc4c(o3)C(=O)c3ccccc3C4=O)c2)CC1` are 36.9%, 76.4%, 53.6% and 66.8%.
The like results for `O=C1c2ccccc2C(=O)c2oc(-c3cccc(OCCN4CCOCC4)c3)nc21` were, in that order, 47.2%, 80%, 44.3% and 82.1%.
The like results for `Cc1cccc(Cl)c1-c1nc2c(o1)C(=O)c1ccccc1C2=O` were, in that order, 23.5%, 40.1%, 15.5% and 55.4%.

These data come from ChEMBL document CHEMBL5108067, “Discovery of Potent OTUB1/USP8 Dual Inhibitors Targeting Proteostasis in Non-Small-Cell Lung Cancer” (J Med Chem, 2022).
